According to paper PMC5602355, “Endogenous Isoquinoline Alkaloids Agonists of Acid-Sensing Ion Channel Type 3” (Frontiers in Molecular Neuroscience, 2017):

What was measured:
[1] = Solubility in physiological solutions for electrophysiology; assay type: physicochemical; settings: in words; maximal concentration used 1 mM
Experimental: (§1) Consequently, a maximal concentration of 1 mM was used in experimentations. The maximal effect on hASIC3 reached about 60% of Imax.

[2] = biological target: T1, human ASIC3 (hASIC3) (Homo sapiens, UniProt Q9UHC3); test: Activation of hASIC3 channels expressed in Xenopus laevis oocytes, whole-cell two electrode voltage clamp; assay type: cell-based; settings: for Maximal activating effect reached, % of Imax: Imax predicted by logistic fit
T1 construct: expressed in transfected cells; host or cells: Xenopus laevis oocytes (injected)
T1 sequence (Q9UHC3 1-531): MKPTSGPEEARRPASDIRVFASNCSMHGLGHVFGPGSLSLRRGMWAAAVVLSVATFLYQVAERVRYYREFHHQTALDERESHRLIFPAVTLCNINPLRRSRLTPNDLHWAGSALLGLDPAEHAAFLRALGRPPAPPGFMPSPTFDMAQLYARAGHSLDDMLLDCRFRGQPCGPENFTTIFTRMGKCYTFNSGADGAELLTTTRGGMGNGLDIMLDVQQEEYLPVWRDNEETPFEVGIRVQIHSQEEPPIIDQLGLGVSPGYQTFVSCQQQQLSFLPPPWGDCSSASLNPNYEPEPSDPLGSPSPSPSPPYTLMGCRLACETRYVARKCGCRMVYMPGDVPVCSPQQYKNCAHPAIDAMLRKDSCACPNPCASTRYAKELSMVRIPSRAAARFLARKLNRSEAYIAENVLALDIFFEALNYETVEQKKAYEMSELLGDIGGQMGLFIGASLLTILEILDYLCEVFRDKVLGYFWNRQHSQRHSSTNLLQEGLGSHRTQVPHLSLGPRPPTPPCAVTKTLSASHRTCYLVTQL
Description: (§2) The ability of EIAs to activate ASIC3 channels was studied in whole-cell configuration on oocytes of Xenopus laevis. THP and reticuline caused slowly activated sustained inward currents both in human (Figures 1A,B) and rat (Figures 1C,D) homomeric ASIC3 channels at resting pH 7.4 and above.
(§3) In the case of human ASIC3 channels (hASIC3), the activating effect was greater and even exceeded the response of the cell to pH drop of 7.8–5.5 in control experiments (Figure 1A). The maximal effect reached about 30% of Imax (a maximal amplitude predicted by the logistic equation fitting of dose-dependence of EIA-induced current). […] THP shown the same potency on the rASIC3 channel (rASIC3; Figure 1C). The activating effect under the same conditions reached about 30% of Imax.
as §1
(§4) Oocytes expressed hASIC3 and rASIC3 homomeric channels were prepared as described (Dubinnyi et al., [2012]). After injection, the oocytes were kept for 2–3 days at 19°C and then up to 7 days at 15°C in an ND-96 medium containing (in mM): 96 NaCl, 2 KCl, 1.8 CaCl2, 1 MgCl2 and 10 HEPES titrated to pH 7.4 with NaOH supplemented with gentamycin (50 μg/ml). Two electrode voltage clamp recordings were made using a GeneClamp500 amplifier (Axon Instruments), and data were filtered at 20 Hz and digitized at 100 Hz by an AD converter L780 (L-Card, Moscow, Russia) using homemade software. A computer-controlled valve system for a fast solution switch was used. Microelectrodes were filled with 3 M KCl solutions. All solutions of the testing compounds were supplemented with 0.1% BSA. To induce currents, we employed ND-96-modified solutions in which 10 mM of HEPES was substituted for 5 mM MES pH 5.5. A set of external ND-96 solutions with pH 6.8–7.0 (buffered with 10 mM of MOPS), pH 7.1–8.0 (buffered with 10 mM of HEPES) was prepared.
The analysis of electrophysiological data was performed using the program OriginPro 8.6. The curve-fitting analysis was carried out with the following four-parameter logistic equation: F(x) = A/(1 + (x/x0)n), where x is the concentration of the ligand, F(x) is the response value at a given ligand concentration, A is the response value at maximal activation (% of control), x0 is the EC50 value and n is the Hill coefficient (slope factor). All data are presented as the mean ± SE.

[3] = biological target: T1, human ASIC3 (hASIC3); test: Recovery of the transient current of hASIC3 from steady-state desensitization, oocytes; assay type: cell-based; settings: hASIC3, conditioning pH 7.3, pH 5.5 stimulus, n = 4-5
Experimental: EIAs cause both the channel activation and transient component of hASIC3 current restoration from a desensitization at pH 7.3 (Figures 2A,D). For THP, the restoration effect was more pronounced. This effect was dose-dependent and reached a maximal possible value at the highest applied concentration of THP (10 mM). […] For this reason, the maximal amplitude of the transient current recovered by THP from desensitization (Imax) was predicted by the fitting of the dose dependence by a logistic equation for each experimental cell.
as §4, with “To induce currents, we employed ND-96-modified solutions in which 10 mM of HEPES was substituted for 5 mM MES pH 5.5. A set of external ND-96 solutions with pH 6.8–7.0 (buffered with 10 mM of MOPS), pH 7.1–8.0 (buffered with 10 mM of HEPES) was prepared.” left out

[4] = biological target: T2, rat ASIC3 (rASIC3) (Rattus norvegicus, UniProt O35240); test: Recovery of the transient current of rASIC3 from steady-state desensitization, oocytes; assay type: cell-based; settings: rASIC3, conditioning pH 6.8, pH 5.5 stimulus, n = 4-5
T2 construct: expressed in transfected cells; host or cells: Xenopus laevis oocytes (injected)
T2 sequence (O35240 1-533): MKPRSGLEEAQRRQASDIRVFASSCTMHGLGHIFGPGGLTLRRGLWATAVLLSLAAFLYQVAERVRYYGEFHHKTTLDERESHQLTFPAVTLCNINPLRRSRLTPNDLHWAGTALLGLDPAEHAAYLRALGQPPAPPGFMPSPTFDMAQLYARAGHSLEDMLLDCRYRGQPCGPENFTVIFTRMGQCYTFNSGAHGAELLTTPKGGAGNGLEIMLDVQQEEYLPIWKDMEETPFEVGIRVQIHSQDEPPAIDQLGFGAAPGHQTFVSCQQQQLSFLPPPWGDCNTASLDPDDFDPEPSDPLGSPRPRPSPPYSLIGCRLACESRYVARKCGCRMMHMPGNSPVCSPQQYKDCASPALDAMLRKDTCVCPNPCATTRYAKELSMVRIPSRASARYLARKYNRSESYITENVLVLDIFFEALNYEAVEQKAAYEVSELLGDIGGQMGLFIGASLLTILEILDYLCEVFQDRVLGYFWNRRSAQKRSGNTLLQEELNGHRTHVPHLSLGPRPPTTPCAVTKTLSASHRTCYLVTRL
Experimental: as §4
(§5) The analysis of electrophysiological data was performed using the program OriginPro 8.6. […]

[5] = biological target: T2, rat ASIC3 (rASIC3); test: Activation of rASIC3 channels expressed in Xenopus laevis oocytes, whole-cell two electrode voltage clamp; assay type: cell-based
Description: as §2, §3, §4, §5

[6] = hASIC3, holding pH 7.8, logistic fit, n = 5

Row | Compound | Solubility in physiological solutions for electrophysiology [1] | Hill coefficient (nH) of channel activation [2, 6] | EC50 ([2]; hASIC3, holding pH 7.8, logistic fit, n = 5, read-out: EC50 of channel activation (EIA-induced sustained current)) | Maximal activating effect reached, % of Imax ([2]; hASIC3, maximal concentration 1 mM) | EC50 [3] | EC50 [4] | Hill coefficient (nH) of channel activation ([5]; rASIC3, holding pH 7.8, logistic fit, n = 5) | EC50 ([5]; rASIC3, holding pH 7.8, logistic fit, n = 5, read-out: EC50 of channel activation (EIA-induced sustained current)) | Maximal activating effect reached, % of Imax ([5]; rASIC3, pH 7.8, up to 10 mM, Imax predicted by logistic fit) | EC50 [2] | Maximal activating effect reached, % of Imax ([2]; hASIC3, pH 7.8, highest accessible concentration 10 mM)
1 | COc1ccc(CC2c3cc(O)c(OC)cc3CCN2C)cc1O (stereo not drawn) [Reticuline, reticuline] | does not have a high solubility | 0.85 ± 0.05 | 0.56 ± 0.04 mM | about 60 % of Imax | – | – | – | – | – | – | –
2 | Oc1ccc(CC2NCCc3cc(O)c(O)cc32)cc1O (stereo not drawn) [THP, tetrahydropapaveroline] | – | 0.99 ± 0.05 | – | – | 2.3 ± 0.04 mM | 4.6 ± 0.1 mM | 0.95 ± 0.04 | > 10 mM | about 30 % of Imax | > 10 mM | about 30 % of Imax
